Experimental findings from PubChem BioAssay AID2060337 (Molecular Pharmacology Branch, DTP, NCI, 2025) are described below.

Broadly, the pIC50 is −log10 of the IC50, conventionally taken in molar units. What is called viability, T/C is the ratio of treated to control.

The structures appear in SMILES notation. pIC50: −log10 of the molar value. Values joined by “and” are separate entries in the source; they are usually repeats but may differ in a detail not shown here. Equal entries are not always repeated.

The test system of the experiment is 832693-133-R-J1-PDC multi-cell spheroids, viability. The experiment in a line: Anticancer human tumor 832693-133-R-J1-PDC patient-derived head and neck squamous carcinoma cell line growth inhibition [IpAb]. The following applies: for viability, T/C: stronger effect = lower value. A digest of the protocol: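 Spheroids of 60% malignant cells, 25% HUVEC and 15% MSC were exposed to targeted agents combined with ipatasertib or abemaciclib. Doses started at or near clinical Cmax (10 microM when unknown) and fell in half-log steps.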

Setting [1] is: curve of first compound, second compound 0.01 µM.
Where [2] appears, read: curve of first compound, second compound 0.0316 µM.
Where [3] appears, read: curve of first compound, second compound 0.1 µM.
Setting [4] is: curve of first compound, second compound 0.316 µM.
Setting [5] is: curve of first compound, second compound 1 µM.
[6] abbreviates: second compound 0.1 µM, first compound 0.000316 µM.
[7] abbreviates: second compound 0.1 µM, first compound 0.001 µM.
The mark [8] stands for this setting: second compound 0.1 µM, first compound 0.00316 µM.
The mark [9] stands for this setting: second compound 0.1 µM, first compound 0.01 µM.
Setting [10] is: second compound 0.1 µM, first compound 0.0316 µM.
The mark [11] stands for this setting: second compound 0.1 µM, first compound 0.1 µM.
[12] abbreviates: second compound 0.316 µM, first compound 0.000316 µM.
The mark [13] stands for this setting: second compound 0.316 µM, first compound 0.001 µM.
[14] abbreviates: second compound 0.316 µM, first compound 0.00316 µM.
Where [15] appears, read: second compound 0.316 µM, first compound 0.01 µM.
[16] abbreviates: second compound 0.316 µM, first compound 0.0316 µM.
[17] abbreviates: second compound 0.316 µM, first compound 0.1 µM.
The mark [18] stands for this setting: second compound 1 µM, first compound 0.000316 µM.
Setting [19] is: second compound 1 µM, first compound 0.001 µM.
[20] abbreviates: second compound 1 µM, first compound 0.00316 µM.
Where [21] appears, read: second compound 1 µM, first compound 0.01 µM.
[22] abbreviates: second compound 1 µM, first compound 0.0316 µM.
Where [23] appears, read: second compound 1 µM, first compound 0.1 µM.
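Further: spheroids exposed to the drugs for one week before the viability readout.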
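Wherever viability, T/C is given: 100% = DMSO vehicle control wells.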

Regarding `Cn1ncnc1[C@H]1c2n[nH]c(=O)c3cc(F)cc(c23)N[C@@H]1c1ccc(F)cc1` + CCN1CCN(Cc2ccc(Nc3ncc(F)c(-c4cc(F)c5nc(C)n(C(C)C)c5c4)n3)nc2)CC1, the pIC50 is below 7.00 under setting [1]; below 7.00 under setting [2]; below 7.00 under setting [3]; below 7.00 under setting [4]; below 7.00 under setting [5]. The viability, T/C runs as follows: (second compound 0.01 µM, first compound 0.000316 µM) 101%; (second compound 0.01 µM, first compound 0.001 µM) 109%; (second compound 0.01 µM, first compound 0.00316 µM) 93.2%; (second compound 0.01 µM, first compound 0.01 µM) 91.9%; (second compound 0.01 µM, first compound 0.0316 µM) 94.7%; (second compound 0.01 µM, first compound 0.1 µM) 77.3%. In addition, the viability, T/C was 90.5% (second compound 0.0316 µM, first compound 0.000316 µM); 86.1% (second compound 0.0316 µM, first compound 0.001 µM); 73.8% (second compound 0.0316 µM, first compound 0.00316 µM); 74.6% (second compound 0.0316 µM, first compound 0.01 µM); 76% (second compound 0.0316 µM, first compound 0.0316 µM); 69.5% (second compound 0.0316 µM, first compound 0.1 µM). For the same compound, the viability, T/C is, setting by setting: under setting [6], 60.1%; under setting [7], 58%; under setting [8], 61%; under setting [9], 70.5%; under setting [10], 63%; under setting [11], 63.2%. Besides, the viability, T/C is 59.1% under setting [12]; 53.6% under setting [13]; 60.5% under setting [14]; 56.5% under setting [15]; 60.8% under setting [16]; 56.3% under setting [17]. Further, the viability, T/C under setting [18] was 63.6%; the viability, T/C under setting [19] was 56.2%; the viability, T/C under setting [20] was 60.6%; the viability, T/C under setting [21] is 63.5%; the viability, T/C under setting [22] is 65.2%; the viability, T/C under setting [23] was 48.2%.

As to `Cn1ncnc1[C@H]1c2n[nH]c(=O)c3cc(F)cc(c23)N[C@@H]1c1ccc(F)cc1` + CC(C)NCC(C(=O)N1CCN(c2ncnc3c2C(C)CC3O)CC1)c1ccc(Cl)cc1, the pIC50 runs as follows: under setting [3], below 7.00; under setting [4], below 7.00; under setting [5], 8.33; (curve of first compound, second compound 3.16 µM) 8.09; (curve of first compound, second compound 10 µM) below 7.00. Also, the viability, T/C by setting is: under setting [6], 96%; under setting [7], 94%; under setting [8], 74.7%; under setting [9], 80.7%; under setting [10], 85.6%; under setting [11], 72.4%. The viability, T/C runs as follows: under setting [12], 77.8%; under setting [13], 87.5%; under setting [14], 69.2%; under setting [15], 61.1%; under setting [16], 65.3%; under setting [17], 52.9%. Moreover, the viability, T/C runs as follows: under setting [18], 59.5%; under setting [19], 56.8%; under setting [20], 49.3%; under setting [21], 48%; under setting [22], 42.7%; under setting [23], 35.9%. The viability, T/C by setting is: (second compound 3.16 µM, first compound 0.000316 µM) 57.9%; (second compound 3.16 µM, first compound 0.001 µM) 61%; (second compound 3.16 µM, first compound 0.00316 µM) 56.1%; (second compound 3.16 µM, first compound 0.01 µM) 46.5%; (second compound 3.16 µM, first compound 0.0316 µM) 41.7%; (second compound 3.16 µM, first compound 0.1 µM) 36.2%. The viability, T/C is 83.5% (second compound 10 µM, first compound 0.000316 µM); 69.4% (second compound 10 µM, first compound 0.001 µM); 65% (second compound 10 µM, first compound 0.00316 µM); 62.6% (second compound 10 µM, first compound 0.01 µM); 63.2% (second compound 10 µM, first compound 0.0316 µM); 47.8% (second compound 10 µM, first compound 0.1 µM).

For the compound `Cc1nc(NC(=O)N2CCCC2C(N)=O)sc1-c1ccnc(C(C)(C)C(F)(F)F)c1` (centres undefined), the viability, T/C (compound 0.0316 µM) is 93.3% and 84.1%; the viability, T/C (compound 0.1 µM) was 80.6% and 87.4%; the viability, T/C (compound 0.316 µM) was 66.7% and 55.5%; the viability, T/C (compound 1 µM) was 36.9% and 39.1%; the viability, T/C (compound 3.16 µM) is 17.8% and 12.8%; the viability, T/C (compound 10 µM) is 4.84% and 2.57%. Further, for the setting “curve of compound”, the pIC50 was 6.22 and 6.27.

Consider `C=CCn1c(=O)c2cnc(Nc3ccc(N4CCN(C)CC4)cc3)nc2n1-c1cccc(C(C)(C)O)n1`, for which the viability, T/C (compound 0.0316 µM) is 94% and 91.3%; the viability, T/C (compound 0.1 µM) was 79.8% and 71.9%; the viability, T/C (compound 0.316 µM) is 32.5% and 35.4%; the viability, T/C (compound 1 µM) is 27% and 31.5%; the viability, T/C (compound 3.16 µM) was 25.9% and 28.6%; the viability, T/C (compound 10 µM) was 12.5% and 11.7%. The pIC50 (curve of compound) is 6.68 and 6.66.

Consider `Cn1cnc2c(F)c(Nc3ccc(Br)cc3Cl)c(C(=O)NOCCO)cc21` + CCN1CCN(Cc2ccc(Nc3ncc(F)c(-c4cc(F)c5nc(C)n(C(C)C)c5c4)n3)nc2)CC1, for which the pIC50 reads like this: under setting [1], 6.93; under setting [2], 7.31; under setting [3], above 8.02; under setting [4], 7.82; under setting [5], 6.77. Further, the viability, T/C (second compound 0.01 µM, first compound 0.00949 µM) is 62.4%; the viability, T/C (second compound 0.01 µM, first compound 0.03 µM) is 58.7%; the viability, T/C (second compound 0.01 µM, first compound 0.0949 µM) is 50.4%; the viability, T/C (second compound 0.01 µM, first compound 0.3 µM) is 41.3%; the viability, T/C (second compound 0.01 µM, first compound 0.949 µM) is 34%; the viability, T/C (second compound 0.01 µM, first compound 3 µM) is 14.1%. In addition, the viability, T/C runs as follows: (second compound 0.0316 µM, first compound 0.00949 µM) 54.3%; (second compound 0.0316 µM, first compound 0.03 µM) 57.5%; (second compound 0.0316 µM, first compound 0.0949 µM) 44.5%; (second compound 0.0316 µM, first compound 0.3 µM) 35.5%; (second compound 0.0316 µM, first compound 0.949 µM) 29.1%; (second compound 0.0316 µM, first compound 3 µM) 13.4%. Besides, the viability, T/C was 47.2% (second compound 0.1 µM, first compound 0.00949 µM); 47.4% (second compound 0.1 µM, first compound 0.03 µM); 36.4% (second compound 0.1 µM, first compound 0.0949 µM); 32.1% (second compound 0.1 µM, first compound 0.3 µM); 24.4% (second compound 0.1 µM, first compound 0.949 µM); 12.6% (second compound 0.1 µM, first compound 3 µM). The viability, T/C (second compound 0.316 µM, first compound 0.00949 µM) is 54.7%; the viability, T/C (second compound 0.316 µM, first compound 0.03 µM) was 43.9%; the viability, T/C (second compound 0.316 µM, first compound 0.0949 µM) is 36.1%; the viability, T/C (second compound 0.316 µM, first compound 0.3 µM) was 34.8%; the viability, T/C (second compound 0.316 µM, first compound 0.949 µM) was 25.3%; the viability, T/C (second compound 0.316 µM, first compound 3 µM) was 15.1%. For the same compound, the viability, T/C reads like this: (second compound 1 µM, first compound 0.00949 µM) 64.6%; (second compound 1 µM, first compound 0.03 µM) 58.2%; (second compound 1 µM, first compound 0.0949 µM) 51.5%; (second compound 1 µM, first compound 0.3 µM) 47.9%; (second compound 1 µM, first compound 0.949 µM) 40.7%; (second compound 1 µM, first compound 3 µM) 28.2%.
